Measured values taken from patent US4322546A, “15-Deoxy-16-hydroxy-16-allenyl prostane derivatives of the E and F series” (American Cyanamid Company, priority 1980, dated 1982).

What was measured:
Assay type in all cases: in vivo, Guinea-Pigs
[1] = system: bronchospasms elicited by intravenous injections of histamine; experiment: bronchodilator activity, Konzett procedure, against histamine-induced bronchospasm; details: Cavia porcellus; three logarithmic cumulative intravenous doses; spasmogen histamine i.v.
Description: (§1) The bronchodilator activity for representative compounds of this invention was determined in Guinea-Pigs against bronchospasms elicited by intravenous injections of serotonin, histamine, and acetylcholine, by the Konzett procedure, the details of which are discussed by J. Lulling, P. Lievens, F. El Sayed and J. Prignot, Arzeimittel-Forschung 18, 995 (1968).
(§2) In the table which follows, bronchodilator activity for representative compounds of the invention against spasmogenic agents serotonin, histamine, and acetylcholine is expressed as an ED50 determined from the results obtained with three logarithmic cumulative intravenous doses.

[2] = system: bronchospasms elicited by intravenous injections of serotonin; experiment: bronchodilator activity, Konzett procedure, against serotonin-induced bronchospasm; details: Cavia porcellus; three logarithmic cumulative intravenous doses; spasmogen serotonin i.v.
Description: as §1, §2

[3] = system: bronchospasms elicited by intravenous injections of acetylcholine; experiment: bronchodilator activity, Konzett procedure, against acetylcholine-induced bronchospasm; details: Cavia porcellus; three logarithmic cumulative intravenous doses; spasmogen acetylcholine i.v.
Description: as §1, §2

Row | SMILES | ED50 [1] | ED50 [2] | ED50 [3]
1 | C=C=CC(O)(C/C=C/[C@H]1[C@H](O)CC(=O)[C@@H]1CCCCCCC(=O)O)CCCC (relative stereo) [dl 15-deoxy-16-hydroxy-16-allenyl-PGE1, dl-11α,16-dihydroxy-9-oxo-16-allenyl-13-trans prostenoic acid] | 1 µg/kg | 1.05 µg/kg | 1.2 µg/kg
2 | C=C=CC(O)(C/C=C/[C@H]1[C@H](O)CC(=O)[C@@H]1C/C=C\CCCC(=O)O)CCCC (relative stereo) [dl 15-deoxy-16-hydroxy-16-allenyl-PGE2, dl-11α,16-dihydroxy-9-oxo-16-allenyl-5-cis-13-trans prostadienoic acid] | 1 µg/kg | 1.4 µg/kg | 1.2 µg/kg
